Test results as given in patent US6358964B1, “Adenosine, A3 receptor modulators” (priority 2000, dated 2002).

Molecular target: T1, human recombinant A3 adenosine receptors (Homo sapiens, UniProt P0DMS8)
T1 construct: expressed in transfected cells; host or cells: CHO cells
T1 sequence (P0DMS8 1-318): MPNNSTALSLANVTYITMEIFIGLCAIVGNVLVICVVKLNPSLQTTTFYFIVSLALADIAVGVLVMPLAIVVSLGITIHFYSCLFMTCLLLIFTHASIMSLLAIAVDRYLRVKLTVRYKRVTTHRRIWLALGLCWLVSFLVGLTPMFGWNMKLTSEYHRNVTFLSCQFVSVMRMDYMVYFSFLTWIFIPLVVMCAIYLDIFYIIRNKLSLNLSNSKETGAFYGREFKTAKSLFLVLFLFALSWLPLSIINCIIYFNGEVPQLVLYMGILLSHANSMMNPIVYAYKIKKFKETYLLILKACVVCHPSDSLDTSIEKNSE
Experiment: Human cloned A3 adenosine receptor binding assay ([3H]MRE3008-F20 displacement, CHO membranes)
Details: radioligand binding, read-out: binding affinity at human A3 receptors (hA3)
Protocol: Inhibitory binding constant, Ki, values can be calculated from those of IC50 according to the Cheng & Prusoff equation (Cheng and Prusoff, Biochem. Pharmacol. 22:3099-3108 (1973)), Ki=IC50/(1+[C*]/KD*), where [C*] is the concentration of the radioligand and KD* its dissociation constant.
The expression of the human […], A2A and A3 receptors in CHO cells has been previously described (Klotz et al., 1998). The cells were grown adherently and maintained in Dulbecco's modified Eagle's medium with nutrient mixture F12 without nucleosides at 37° C. in 5% CO2/95% air. Cells were split two or three times weekly and then the culture medium was removed for membrane preparations. […]
Binding of [^3H] […] Bound and free radioactivity were separated by filtering the assay mixture through Whatman GF/B glass-fiber filters using a Micro-mate 196 cell harvester (Packard Instrument Company). The filter bound radioactivity was counted on Top Count (efficiency 57%) with Micro-Scint 20. The protein concentration was determined according to a BioRad method (Bradford, M. M., “A rapid and sensitive method for the quantification of microgram quantities of protein utilizing the principle of protein dye-binding,” Anal. Biochem. 72, 248, 1976) with bovine albumin as reference standard.

Row | Ki [pM] | Structure (SMILES)
1 | 140 | COc1ccc(NC(=O)Nc2nc3ccc(Cl)cc3c3nc(-c4ccco4)nn23)cc1 [Compound 1]
2 | 190 | O=C(Nc1cccc(Cl)c1)Nc1nc2ccc(Cl)cc2c2nc(-c3ccco3)nn12 [Compound 2]
